Experimental findings from patent US11999676B2, “Vesicular monoamine transporter-2 ligands and their use in the treatment of psychostimulant abuse” (priority 2016, dated 2024) are described below.

In one series the target is VMAT2 (Rattus norvegicus (Rat), UniProt Q01827). Nature of the series: [3H]Dopamine ([3H]DA) uptake assay, vesicular preparation. The series is classed as biochemical. The following applies: [3H]DA uptake, rat; read-out: VMAT2 (rat) Inhibition: Mean Ki ± Standard Deviation.
The next series concerns the target hERG channel (Homo sapiens (Human), UniProt Q12809). Nature of the series: [3H]Dofetilide binding assay, HEK-293 cell membrane preparation. The following applies: [3H]dofetilide, HEK-293 cell membranes; read-out: hERG Binding: Mean Ki ± Standard Deviation. The procedure:
[^3H]Dofetilide binding assays were conducted using commercially available HEK-293 cell membranes which stably express the hERG channel. Membranes were suspended in assay buffer (50 mM Tris, 10 mM KCl, 1 mM MgCl2, pH 7.4) prior to the experiment. […] Aliquots of the HEK-293 cell membrane suspension which contained 5 μg membrane protein were added to tubes containing assay buffer, 5 nM [^3H]dofetilide and a range of concentrations of analog (10 nM-100 μM). Nonspecific binding was determined in the presence of amitriptyline (1 mM). Samples were incubated for 1 hr. at 24° C., followed by rapid filtration. […] The affinity for the [^3H]dofetilide binding site on the hERG channel expressed in the HEK-293 cellular membrane was determined from the analog concentration response curves.
On the technique in general: Block of hERG is tested as a sign of cardiac risk.

Series [1] is described as follows: Microsomal stability assay, human liver microsomes. The following applies: for CLint scaled at 0.08 µM / half-life at 0.08 µM: both, human, pooled liver microsomes; for CLint scaled at 0.08 µM: pH 7.4, Microsomal stability assays: Clearance; for half-life at 0.08 µM: pH 7.4, Microsomal stability assays: Half-life.
Experimental: Each plate holds triplicate samples of two controls (0.4 mM) and up to 14 compounds (0.08 mM) in rat and human liver microsomes. Aliquots of each well of the plate (175 μl of each well) were transferred from the master plate into 5 assay plates. For 0-hr time point, pre-cooled (4° C.) internal standard (437.5 μL, 2 μM caffeine in methanol) was added to the first plate before the reaction starts. NADPH regenerating system solution A (6.05 ml, Fisher Scientific, #NC9255727) was combined with NADPH regenerating system solution B (1.21 ml, Fisher Scientific, #NC9016235) in potassium phosphate buffer (15.8 ml, 0.1 M, pH 7.4, 37° C.). The resulting NADPH solution (43.8 μl) was added to each well of all the 96-well assay plates and mixed with pipette briefly making the final protein and compound concentrations respectively: 0.5 mg/ml, 0.08 μM (0.4 μM for controls). Plates were sealed, and all plates except the 0-hr plate were incubated at 37° C., shaken at a speed of 60 rpm. A single assay plate was tested at each time point: 0.5 hr, 1 hr, 2 hr, and 4 hr. At each time point, 437.5 μL of pre-cooled internal standard was added each well of the plate to quench the reaction. […] 120 μl supernatant was transferred to a 96-well plate, centrifuged again and analyzed by UPLC-MS (Waters Inc., Milford, MA). The compounds and internal standard were detected by selected ion recording (SIR).
The amount of material was measured as a ratio of peak area to the internal standard and graphed. Using the slope from the initial linear portion of this curve, the degradation rate constant is calculated using equation [1].

Sequence of hERG channel (Q12809 whole entry): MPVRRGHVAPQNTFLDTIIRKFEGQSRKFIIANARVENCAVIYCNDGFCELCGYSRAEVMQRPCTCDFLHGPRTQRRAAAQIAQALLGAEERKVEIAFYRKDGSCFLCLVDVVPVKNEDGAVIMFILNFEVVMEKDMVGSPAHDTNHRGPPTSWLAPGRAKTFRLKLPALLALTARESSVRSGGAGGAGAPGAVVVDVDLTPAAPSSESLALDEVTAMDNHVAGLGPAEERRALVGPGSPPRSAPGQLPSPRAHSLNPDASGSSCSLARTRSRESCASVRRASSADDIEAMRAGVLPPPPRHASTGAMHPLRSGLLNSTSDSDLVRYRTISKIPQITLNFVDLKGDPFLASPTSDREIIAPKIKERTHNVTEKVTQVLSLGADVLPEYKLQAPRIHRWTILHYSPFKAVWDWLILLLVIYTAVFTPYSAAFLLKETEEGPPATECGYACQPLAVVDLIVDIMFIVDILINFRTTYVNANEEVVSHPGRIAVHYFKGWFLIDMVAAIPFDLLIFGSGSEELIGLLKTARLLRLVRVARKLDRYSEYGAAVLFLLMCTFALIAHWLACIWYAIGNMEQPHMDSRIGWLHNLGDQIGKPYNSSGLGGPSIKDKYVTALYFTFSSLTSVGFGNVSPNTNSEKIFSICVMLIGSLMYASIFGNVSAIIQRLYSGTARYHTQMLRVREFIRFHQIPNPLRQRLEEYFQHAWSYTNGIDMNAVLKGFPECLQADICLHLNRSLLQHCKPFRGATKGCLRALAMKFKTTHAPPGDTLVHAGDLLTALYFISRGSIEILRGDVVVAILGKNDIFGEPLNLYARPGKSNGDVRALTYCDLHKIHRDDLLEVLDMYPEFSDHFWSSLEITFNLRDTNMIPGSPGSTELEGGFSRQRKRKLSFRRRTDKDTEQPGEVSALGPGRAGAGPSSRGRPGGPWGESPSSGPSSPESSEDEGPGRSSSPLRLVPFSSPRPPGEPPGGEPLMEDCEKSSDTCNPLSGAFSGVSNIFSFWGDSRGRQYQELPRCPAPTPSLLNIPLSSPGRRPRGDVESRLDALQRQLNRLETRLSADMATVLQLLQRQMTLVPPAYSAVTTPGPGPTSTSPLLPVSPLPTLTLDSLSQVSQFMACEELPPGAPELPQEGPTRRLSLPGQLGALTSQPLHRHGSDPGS

In the case of `CC(Cc1ccc(NC=O)cc1)N(C=O)CCCc1ccc(F)cc1` (stereo not shown) [Compound 74], the inhibitory constant (Ki) (commonly a measure of affinity in units of concentration, obtained from inhibition or displacement) at VMAT2 was found to be 8.82 ± 2.05 nM; at hERG channel, 831 ± 187 nM.
`CC(Cc1ccc(C(F)(F)F)cc1)NCCCc1ccc(N)cc1` (stereo not shown) [Compound 54]: the values for the inhibition constant (Ki) at VMAT2 and at hERG channel were 61.8 ± 1.69 nM and 908 ± 102 nM, respectively.
For `COc1ccc(CC(C)NCCCc2ccc([N+](=O)[O-])cc2)cc1` (stereo not shown) [Compound 58], in that order: 16.6 ± 3.99 nM and 42.3 ± 8.21 nM.
Turning to `COc1ccc(CCCNC(C)Cc2ccncc2)cc1` (stereo not shown) [Compound 172], on VMAT2, the Ki amounted to 186 ± 127 nM. Also, in series [1], the CLint scaled (as a rule, the capacity of the preparation to metabolise the compound, expressed as a volume cleared per time) at 0.08 µM is 42.9 mL/min/kg and the half-life (as a rule, how long it takes for the measured level to halve) at 0.08 µM is 0.5 h.
With `CC(Cc1ccc(C(F)(F)F)cc1)NCCCc1ccc(O)cc1` (stereo not shown) [Compound 209], the Ki came out at 17.1 ± 6.86 nM at VMAT2 and 252 ± 109 nM at hERG channel.
`CC(Cc1ccc(F)cc1)NCCCn1ccnc1` (stereo not shown) [Compound 134]: the Ki on VMAT2 was found to be 517 ± 112 nM. Further, in series [1], the intrinsic clearance (CLint scaled) at 0.08 µM is < 5.2 mL/min/kg and the half-life at 0.08 µM is > 4 h.
`COc1ccc(CC(C)NCCCc2ccc(N)cc2)cc1` (stereo not shown) [Compound 57]: the Ki stood at 68.9 ± 13.3 nM on VMAT2 and 4250 ± 220 nM on hERG channel.
For `CC(Cc1ccc(Cl)cc1)NCCCc1ccc([N+](=O)[O-])cc1` (stereo not shown) [Compound 64], in that order: 16.4 ± 1.47 nM and 28.8 ± 13.7 nM.
Consider `CC(C)C(Cc1ccc(F)cc1)NCCCc1ccc(Br)cc1` (stereo not shown) [Compound 140], for which the inhibitory constant (Ki) at VMAT2 came out at 132 ± 29.5 nM. In series [1], this molecule showed an intrinsic clearance (CLint scaled) at 0.08 µM of 14.4 mL/min/kg and a half-life at 0.08 µM of 1.4 h.
For `CC(Cc1ccc([N+](=O)[O-])cc1)NCCCc1ccncc1` (stereo not shown) [Compound 113], in that order: 157 ± 72.5 nM, 6.3 mL/min/kg and 3.3 h.
The matching figures for `CC(Cc1ccc(F)cc1)NCCCc1ccc(S(C)(=O)=O)cc1` (stereo not shown) [Compound 138]: 146 ± 41.9 nM, < 5.2 mL/min/kg and > 4 h.
Consider `FCC(Cc1ccc(F)cc1)NCCCc1ccccc1` (stereo not shown) [Compound 100], for which the Ki came out at 51.2 ± 12 nM at VMAT2 and 7390 ± 1360 nM on hERG channel.
`CC(Cc1ccccc1)NCCCc1ccc(O)cc1` (stereo not shown) [Compound 223]: the Ki at VMAT2 was 5.01 ± 1.72 nM; on hERG channel it was 2750 ± 1080 nM.
`OCC(Cc1ccc(F)cc1)NCCCc1ccc(F)cc1` (stereo not shown) [Compound 147]: the values for the Ki on VMAT2 and on hERG channel were 30.1 ± 14.2 nM and 1150 ± 417 nM, respectively.
The matching figures for `CC(Cc1ccc([N+](=O)[O-])cc1)NCCCc1ccc(Cl)cc1` (stereo not shown) [Compound 125]: 8.58 ± 3.71 nM and 82 ± 12.7 nM.
For `CC(Cc1ccc(F)c(F)c1)NCCCc1ccc([N+](=O)[O-])cc1` (stereo not shown) [Compound 59], the inhibition constant (Ki) at VMAT2 was determined as 13.1 ± 2.87 nM; on hERG channel it was 55.6 ± 7.7 nM.
Consider `CC(Cc1ccc(-c2cccnc2)cc1)NCCCc1ccc(F)cc1` (stereo not shown) [Compound 193], for which, in series [1], the “Microsomal stability assays: Half-life” value stood at 6 min and the CLint scaled at 0.08 µM turned out to be 144 mL/min/kg.
Turning to `CC(Cc1ccc(Br)cc1)NCCCc1ccncc1` (stereo not shown) [Compound 175], in series [1], the CLint scaled at 0.08 µM was < 5.2 mL/min/kg and the half-life at 0.08 µM is > 4 h.
The matching figures for `CC(Cc1ccccc1)NCCCc1ccc(C(F)(F)F)cc1` (stereo not shown) [Compound 195]: < 5.2 mL/min/kg and > 4 h.
As to `CC(Cc1ccccc1)NCCCc1ccc(-c2cncnc2)cc1` (stereo not shown) [Compound 202], at VMAT2, the inhibitory constant (Ki) worked out at 119 ± 31.8 nM. Further, in series [1], the “Microsomal stability assays: Half-life” value stood at 6 min and the CLint scaled at 0.08 µM turned out to be 155 mL/min/kg.
In the case of `FCC(Cc1ccc(F)cc1)NCCCc1ccc(F)cc1` (stereo not shown) [Compound 153], in series [1], the intrinsic metabolic clearance (CLint scaled) at 0.08 µM amounted to 20.5 mL/min/kg and the half-life at 0.08 µM is 1 h.
Consider `CC(Cc1ccc(F)cc1)NCCCc1ccc(N(C)C)cc1` (stereo not shown) [Compound 156], for which, on VMAT2, the Ki stood at 118 ± 25.8 nM. Further, in series [1], the “Microsomal stability assays: Half-life” value was 6 min and the intrinsic clearance (CLint scaled) at 0.08 µM is 182 mL/min/kg.
With `COc1ccc(CCC(C)NC(C)Cc2ccccc2)cc1` (stereo not shown) [Compound 199], in series [1], the CLint scaled at 0.08 µM is > 400 mL/min/kg and the half-life at 0.08 µM is < 0.1 h.
`CC(Cc1ccccc1)NCCCc1ccc(-c2cccnc2)cc1` (stereo not shown) [Compound 211]: in series [1], the CLint scaled at 0.08 µM is > 400 mL/min/kg and the half-life at 0.08 µM was < 0.1 h.
